Key:
Histone deacetylase 2 = Histone deacetylase 2 (Homo sapiens, UniProt Q92769); assay: Inhibition of HDAC2 (unknown origin)
Histone deacetylase 3 = Histone deacetylase 3 (Homo sapiens, UniProt O15379); assay: Inhibition of HDAC3 (unknown origin)
Histone deacetylase 4 = Histone deacetylase 4 (Homo sapiens, UniProt P56524); assay: Inhibition of HDAC4 (unknown origin)
Histone deacetylase 5 = Histone deacetylase 5 (Homo sapiens, UniProt Q9UQL6); assay: Inhibition of HDAC5 (unknown origin)
Histone deacetylase 8 = target: T1, Histone deacetylase 8 (Homo sapiens, UniProt Q9BY41); assay: Inhibition of HDAC8 (unknown origin)
T1 sequence (Q9BY41 whole entry): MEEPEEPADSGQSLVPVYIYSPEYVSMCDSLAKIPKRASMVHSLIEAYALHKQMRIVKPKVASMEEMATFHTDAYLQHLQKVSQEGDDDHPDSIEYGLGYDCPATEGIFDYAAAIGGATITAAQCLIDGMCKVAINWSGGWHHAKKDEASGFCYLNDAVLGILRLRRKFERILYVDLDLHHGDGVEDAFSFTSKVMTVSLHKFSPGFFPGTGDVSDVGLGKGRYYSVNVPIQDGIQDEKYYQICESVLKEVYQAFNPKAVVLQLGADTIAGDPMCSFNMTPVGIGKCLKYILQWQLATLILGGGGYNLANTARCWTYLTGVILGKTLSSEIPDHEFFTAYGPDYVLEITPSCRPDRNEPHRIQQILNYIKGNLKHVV

Histone deacetylase 9 = Histone deacetylase 9 (Homo sapiens, UniProt Q9UKV0); assay: Inhibition of HDAC9 (unknown origin)
[1] = target: T2, Polyamine deacetylase HDAC10 (Homo sapiens, UniProt Q969S8); assay: Inhibition of HDAC10 (unknown origin)
T2 sequence (Q969S8 whole entry): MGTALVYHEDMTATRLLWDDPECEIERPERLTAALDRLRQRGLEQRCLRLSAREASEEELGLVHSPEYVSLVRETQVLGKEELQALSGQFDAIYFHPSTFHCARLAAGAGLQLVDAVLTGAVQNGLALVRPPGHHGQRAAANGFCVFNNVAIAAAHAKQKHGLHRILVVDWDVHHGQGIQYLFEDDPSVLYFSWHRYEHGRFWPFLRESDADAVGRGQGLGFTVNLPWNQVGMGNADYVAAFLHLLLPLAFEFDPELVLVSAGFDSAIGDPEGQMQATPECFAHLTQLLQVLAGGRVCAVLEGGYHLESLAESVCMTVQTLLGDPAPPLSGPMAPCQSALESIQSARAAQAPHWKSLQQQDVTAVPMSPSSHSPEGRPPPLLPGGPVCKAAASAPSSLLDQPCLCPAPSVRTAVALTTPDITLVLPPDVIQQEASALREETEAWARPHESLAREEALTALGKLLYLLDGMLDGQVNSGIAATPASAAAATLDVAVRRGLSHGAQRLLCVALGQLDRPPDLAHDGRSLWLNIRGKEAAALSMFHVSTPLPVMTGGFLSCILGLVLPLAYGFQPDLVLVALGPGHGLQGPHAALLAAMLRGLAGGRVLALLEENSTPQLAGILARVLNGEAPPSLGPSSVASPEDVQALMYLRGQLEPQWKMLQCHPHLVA

Histone deacetylase 11 = target: T3, Histone deacetylase 11 (Homo sapiens, UniProt Q96DB2); assay: Inhibition of HDAC11 (unknown origin)
T3 sequence (Q96DB2 whole entry): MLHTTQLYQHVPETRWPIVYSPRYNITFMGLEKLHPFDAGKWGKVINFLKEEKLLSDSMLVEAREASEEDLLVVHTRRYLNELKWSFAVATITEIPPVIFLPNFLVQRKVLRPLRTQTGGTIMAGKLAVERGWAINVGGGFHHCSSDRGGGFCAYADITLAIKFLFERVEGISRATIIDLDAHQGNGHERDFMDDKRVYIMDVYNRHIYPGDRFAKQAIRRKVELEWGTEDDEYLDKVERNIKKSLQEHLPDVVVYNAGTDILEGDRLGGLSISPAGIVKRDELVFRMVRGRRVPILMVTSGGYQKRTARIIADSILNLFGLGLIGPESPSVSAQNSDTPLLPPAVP

[2] = Drug concentration in C57BL/6 mouse brain at 1 mg/kg, ip measured after 0.5 hrs by LC-MS/MS analysis; type: ADME, organism-based; conditions: read-out: Ct
[3] = Drug concentration in C57BL/6 mouse brain at 1 mg/kg, ip measured after 1 hr by LC-MS/MS analysis; type: ADME, organism-based; conditions: read-out: Ct
[4] = Drug concentration in C57BL/6 mouse brain at 1 mg/kg, ip measured after 3 hrs by LC-MS/MS analysis; type: ADME, organism-based; conditions: read-out: Ct
[5] = Drug concentration in C57BL/6 mouse plasma at 1 mg/kg, ip measured after 0.5 hrs by LC-MS/MS analysis; type: ADME, organism-based
[6] = Drug concentration in C57BL/6 mouse plasma at 1 mg/kg, ip measured after 1 hr by LC-MS/MS analysis; type: ADME, organism-based
[7] = Drug concentration in C57BL/6 mouse plasma at 1 mg/kg, ip measured after 3 hrs by LC-MS/MS analysis; type: ADME, organism-based
[8] = Ratio of drug concentration in brain to plasma of C57BL/6 mouse plasma at 1 mg/kg, ip measured after 0.5 hr by LC-MS/MS analysis; type: ADME, organism-based; conditions: read-out: BPR
[9] = Ratio of drug concentration in brain to plasma of C57BL/6 mouse plasma at 1 mg/kg, ip measured after 1 hr by LC-MS/MS analysis; type: ADME, organism-based; conditions: read-out: BPR
[10] = Ratio of drug concentration in brain to plasma of C57BL/6 mouse plasma at 1 mg/kg, ip measured after 3 hrs by LC-MS/MS analysis; type: ADME, organism-based; conditions: read-out: BPR
BV-2 = assay: Cytotoxicity against mouse BV-2 cells at 500 to 1000 nM incubated overnight in presence of LPS by LDH assay; type: toxicity, cell-based; conditions: bv-2, 1 µM, dose 500-1000 nM
Histone deacetylase 1 = Histone deacetylase 1 (Homo sapiens, UniProt Q13547); assay: Inhibition of HDAC1 (unknown origin)
[11] = target: T4, Protein deacetylase HDAC6 (Homo sapiens, UniProt Q9UBN7); assay: Inhibition of HDAC6 (unknown origin)
T4 sequence (Q9UBN7 whole entry): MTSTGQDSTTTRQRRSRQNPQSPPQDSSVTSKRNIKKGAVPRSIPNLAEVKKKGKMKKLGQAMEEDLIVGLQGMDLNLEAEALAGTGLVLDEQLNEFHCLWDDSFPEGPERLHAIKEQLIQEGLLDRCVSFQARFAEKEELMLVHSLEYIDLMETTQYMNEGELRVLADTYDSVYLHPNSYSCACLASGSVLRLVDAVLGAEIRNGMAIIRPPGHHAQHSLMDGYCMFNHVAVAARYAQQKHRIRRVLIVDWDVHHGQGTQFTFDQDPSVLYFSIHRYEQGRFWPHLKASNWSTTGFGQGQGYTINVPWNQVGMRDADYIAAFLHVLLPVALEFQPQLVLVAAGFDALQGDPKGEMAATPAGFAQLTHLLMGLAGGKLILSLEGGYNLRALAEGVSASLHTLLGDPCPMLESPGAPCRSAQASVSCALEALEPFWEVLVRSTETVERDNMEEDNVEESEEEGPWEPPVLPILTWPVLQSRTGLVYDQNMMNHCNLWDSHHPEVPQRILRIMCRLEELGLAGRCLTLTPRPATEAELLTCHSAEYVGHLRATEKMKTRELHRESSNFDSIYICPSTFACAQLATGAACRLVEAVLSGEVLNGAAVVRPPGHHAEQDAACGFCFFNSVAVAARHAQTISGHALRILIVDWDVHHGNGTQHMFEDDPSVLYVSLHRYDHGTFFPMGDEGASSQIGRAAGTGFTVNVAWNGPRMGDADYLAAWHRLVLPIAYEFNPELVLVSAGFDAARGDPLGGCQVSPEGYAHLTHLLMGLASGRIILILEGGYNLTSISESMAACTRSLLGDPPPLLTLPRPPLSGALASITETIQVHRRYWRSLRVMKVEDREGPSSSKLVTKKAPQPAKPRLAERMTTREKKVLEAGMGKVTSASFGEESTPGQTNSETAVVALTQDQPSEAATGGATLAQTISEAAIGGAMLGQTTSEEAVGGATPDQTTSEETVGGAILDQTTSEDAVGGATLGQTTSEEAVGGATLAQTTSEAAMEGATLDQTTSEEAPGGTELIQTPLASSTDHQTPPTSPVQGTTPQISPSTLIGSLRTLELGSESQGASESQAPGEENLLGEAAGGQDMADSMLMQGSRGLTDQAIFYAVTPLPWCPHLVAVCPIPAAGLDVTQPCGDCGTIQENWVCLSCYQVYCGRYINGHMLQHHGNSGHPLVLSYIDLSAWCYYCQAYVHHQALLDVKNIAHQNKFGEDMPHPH

[12] = Drug uptake in mouse brain at 3 mg/kg measured at upto 60 mins by PET imaging based analysis; type: ADME, organism-based; conditions: in vivo, 1 h
[13] = Drug accumulation in mouse heart measured after 5 mins post injection; type: ADME, tissue-based; conditions: in vivo
[14] = Drug accumulation in mouse liver measured after 5 mins post injection; type: ADME, tissue-based; conditions: in vivo
[15] = Drug accumulation in mouse kidney measured after 5 mins post injection; type: ADME, tissue-based; conditions: in vivo
[16] = Drug accumulation in mouse lung measured after 5 mins post injection; type: ADME, tissue-based; conditions: in vivo
[17] = Drug accumulation in mouse spleen measured after 5 mins post injection; type: ADME, tissue-based; conditions: in vivo
[18] = Drug accumulation in mouse liver measured after 60 mins post injection; type: ADME, tissue-based; conditions: in vivo, 1 h
[19] = Drug accumulation in mouse kidney measured after 60 mins post injection; type: ADME, tissue-based; conditions: in vivo, 1 h

Histone deacetylase 1, sequence (Q13547 whole entry): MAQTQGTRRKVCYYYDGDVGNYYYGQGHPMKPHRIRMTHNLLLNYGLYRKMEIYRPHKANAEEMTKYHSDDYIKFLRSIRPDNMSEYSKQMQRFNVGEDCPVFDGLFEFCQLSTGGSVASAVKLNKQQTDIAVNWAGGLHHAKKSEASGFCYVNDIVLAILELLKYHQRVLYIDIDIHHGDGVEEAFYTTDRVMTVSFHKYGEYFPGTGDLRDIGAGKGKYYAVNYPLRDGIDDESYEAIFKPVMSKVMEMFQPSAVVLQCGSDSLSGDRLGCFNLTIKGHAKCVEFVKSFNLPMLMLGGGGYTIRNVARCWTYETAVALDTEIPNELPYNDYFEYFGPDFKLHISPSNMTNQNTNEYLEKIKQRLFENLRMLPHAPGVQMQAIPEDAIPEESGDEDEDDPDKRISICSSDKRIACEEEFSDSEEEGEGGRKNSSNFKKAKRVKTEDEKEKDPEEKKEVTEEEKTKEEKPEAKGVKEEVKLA
Histone deacetylase 3, sequence (O15379 whole entry): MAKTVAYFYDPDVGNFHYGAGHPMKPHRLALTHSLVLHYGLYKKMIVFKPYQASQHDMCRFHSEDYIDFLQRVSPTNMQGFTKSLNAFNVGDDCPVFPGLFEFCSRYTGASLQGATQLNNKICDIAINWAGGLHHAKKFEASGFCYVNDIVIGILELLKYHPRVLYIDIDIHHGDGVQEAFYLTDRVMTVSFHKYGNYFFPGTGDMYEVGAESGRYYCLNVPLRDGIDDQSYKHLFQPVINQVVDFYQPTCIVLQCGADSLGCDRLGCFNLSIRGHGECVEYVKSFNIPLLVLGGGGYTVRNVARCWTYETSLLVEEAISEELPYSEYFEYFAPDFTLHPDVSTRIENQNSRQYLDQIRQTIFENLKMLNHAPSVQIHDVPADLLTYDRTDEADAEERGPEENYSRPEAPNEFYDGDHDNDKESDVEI
Histone deacetylase 4, sequence (P56524 whole entry): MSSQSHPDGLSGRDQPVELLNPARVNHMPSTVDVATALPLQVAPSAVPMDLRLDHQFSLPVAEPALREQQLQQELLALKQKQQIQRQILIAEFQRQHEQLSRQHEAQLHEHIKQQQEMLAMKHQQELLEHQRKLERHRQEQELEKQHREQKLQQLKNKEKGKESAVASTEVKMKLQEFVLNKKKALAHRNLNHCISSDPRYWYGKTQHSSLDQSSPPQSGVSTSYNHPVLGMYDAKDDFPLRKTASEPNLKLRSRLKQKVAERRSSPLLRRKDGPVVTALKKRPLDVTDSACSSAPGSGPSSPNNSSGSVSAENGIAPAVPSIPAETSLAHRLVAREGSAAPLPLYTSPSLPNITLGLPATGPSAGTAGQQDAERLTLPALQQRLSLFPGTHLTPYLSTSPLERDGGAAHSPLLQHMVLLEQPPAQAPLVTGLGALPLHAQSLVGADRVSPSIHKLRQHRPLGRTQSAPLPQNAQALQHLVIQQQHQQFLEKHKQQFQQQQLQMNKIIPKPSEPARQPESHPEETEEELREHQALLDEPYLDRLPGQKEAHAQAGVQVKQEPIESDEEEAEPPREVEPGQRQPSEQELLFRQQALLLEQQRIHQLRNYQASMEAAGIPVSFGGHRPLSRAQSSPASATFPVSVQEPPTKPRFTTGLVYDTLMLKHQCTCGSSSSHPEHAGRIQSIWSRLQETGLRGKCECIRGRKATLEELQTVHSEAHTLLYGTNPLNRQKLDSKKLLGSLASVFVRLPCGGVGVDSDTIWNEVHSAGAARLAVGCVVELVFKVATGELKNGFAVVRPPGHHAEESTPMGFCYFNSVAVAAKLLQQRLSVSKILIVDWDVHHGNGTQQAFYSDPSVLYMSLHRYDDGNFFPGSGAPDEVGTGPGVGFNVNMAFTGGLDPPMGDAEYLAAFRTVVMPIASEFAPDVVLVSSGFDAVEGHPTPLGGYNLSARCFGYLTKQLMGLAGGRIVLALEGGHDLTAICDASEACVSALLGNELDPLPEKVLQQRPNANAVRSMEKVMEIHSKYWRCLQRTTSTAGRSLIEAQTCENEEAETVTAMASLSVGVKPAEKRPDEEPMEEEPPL
Histone deacetylase 2, sequence (Q92769 whole entry): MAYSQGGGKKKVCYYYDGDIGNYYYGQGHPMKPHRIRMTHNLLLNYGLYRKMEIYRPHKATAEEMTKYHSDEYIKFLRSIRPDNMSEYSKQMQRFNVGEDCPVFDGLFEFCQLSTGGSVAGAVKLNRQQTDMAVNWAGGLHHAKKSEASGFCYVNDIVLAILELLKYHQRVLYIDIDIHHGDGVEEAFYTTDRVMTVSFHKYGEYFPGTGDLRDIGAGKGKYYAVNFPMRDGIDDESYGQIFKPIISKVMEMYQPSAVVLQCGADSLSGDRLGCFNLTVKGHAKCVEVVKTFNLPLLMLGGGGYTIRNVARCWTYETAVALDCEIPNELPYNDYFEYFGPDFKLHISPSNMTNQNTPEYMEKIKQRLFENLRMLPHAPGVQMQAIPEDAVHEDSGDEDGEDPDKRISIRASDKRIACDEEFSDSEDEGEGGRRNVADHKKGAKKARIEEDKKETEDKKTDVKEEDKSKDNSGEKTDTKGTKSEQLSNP
Histone deacetylase 5, sequence (Q9UQL6 whole entry): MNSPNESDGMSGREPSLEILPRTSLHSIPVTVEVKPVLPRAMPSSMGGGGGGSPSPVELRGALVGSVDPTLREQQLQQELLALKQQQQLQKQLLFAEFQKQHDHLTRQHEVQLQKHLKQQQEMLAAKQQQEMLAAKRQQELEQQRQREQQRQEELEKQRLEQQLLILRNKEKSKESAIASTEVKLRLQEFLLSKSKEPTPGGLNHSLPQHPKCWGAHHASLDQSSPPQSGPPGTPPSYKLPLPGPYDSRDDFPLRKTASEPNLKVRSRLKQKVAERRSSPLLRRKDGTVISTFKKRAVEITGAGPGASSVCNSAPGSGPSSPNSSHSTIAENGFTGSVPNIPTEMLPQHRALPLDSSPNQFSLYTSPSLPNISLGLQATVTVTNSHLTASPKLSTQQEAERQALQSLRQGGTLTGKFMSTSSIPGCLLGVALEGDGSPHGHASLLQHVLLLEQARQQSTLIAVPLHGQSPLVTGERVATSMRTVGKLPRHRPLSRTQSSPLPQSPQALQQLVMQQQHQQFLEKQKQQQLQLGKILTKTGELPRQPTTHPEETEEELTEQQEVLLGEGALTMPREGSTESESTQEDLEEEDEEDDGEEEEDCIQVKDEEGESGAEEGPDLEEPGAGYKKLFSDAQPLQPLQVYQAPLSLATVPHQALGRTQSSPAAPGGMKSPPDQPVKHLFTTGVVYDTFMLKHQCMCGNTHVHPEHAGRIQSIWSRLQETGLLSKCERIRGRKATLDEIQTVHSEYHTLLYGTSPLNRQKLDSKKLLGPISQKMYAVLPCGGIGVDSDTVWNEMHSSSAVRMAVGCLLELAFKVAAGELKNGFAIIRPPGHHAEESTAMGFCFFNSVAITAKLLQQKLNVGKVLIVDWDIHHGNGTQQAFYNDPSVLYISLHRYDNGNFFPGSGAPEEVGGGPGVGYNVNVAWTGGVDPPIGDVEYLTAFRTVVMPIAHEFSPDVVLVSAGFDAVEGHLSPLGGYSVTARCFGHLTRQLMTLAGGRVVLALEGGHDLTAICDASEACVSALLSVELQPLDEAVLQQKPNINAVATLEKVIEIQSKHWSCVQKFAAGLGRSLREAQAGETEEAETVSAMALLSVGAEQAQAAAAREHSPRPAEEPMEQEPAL
Histone deacetylase 9, sequence (Q9UKV0 whole entry): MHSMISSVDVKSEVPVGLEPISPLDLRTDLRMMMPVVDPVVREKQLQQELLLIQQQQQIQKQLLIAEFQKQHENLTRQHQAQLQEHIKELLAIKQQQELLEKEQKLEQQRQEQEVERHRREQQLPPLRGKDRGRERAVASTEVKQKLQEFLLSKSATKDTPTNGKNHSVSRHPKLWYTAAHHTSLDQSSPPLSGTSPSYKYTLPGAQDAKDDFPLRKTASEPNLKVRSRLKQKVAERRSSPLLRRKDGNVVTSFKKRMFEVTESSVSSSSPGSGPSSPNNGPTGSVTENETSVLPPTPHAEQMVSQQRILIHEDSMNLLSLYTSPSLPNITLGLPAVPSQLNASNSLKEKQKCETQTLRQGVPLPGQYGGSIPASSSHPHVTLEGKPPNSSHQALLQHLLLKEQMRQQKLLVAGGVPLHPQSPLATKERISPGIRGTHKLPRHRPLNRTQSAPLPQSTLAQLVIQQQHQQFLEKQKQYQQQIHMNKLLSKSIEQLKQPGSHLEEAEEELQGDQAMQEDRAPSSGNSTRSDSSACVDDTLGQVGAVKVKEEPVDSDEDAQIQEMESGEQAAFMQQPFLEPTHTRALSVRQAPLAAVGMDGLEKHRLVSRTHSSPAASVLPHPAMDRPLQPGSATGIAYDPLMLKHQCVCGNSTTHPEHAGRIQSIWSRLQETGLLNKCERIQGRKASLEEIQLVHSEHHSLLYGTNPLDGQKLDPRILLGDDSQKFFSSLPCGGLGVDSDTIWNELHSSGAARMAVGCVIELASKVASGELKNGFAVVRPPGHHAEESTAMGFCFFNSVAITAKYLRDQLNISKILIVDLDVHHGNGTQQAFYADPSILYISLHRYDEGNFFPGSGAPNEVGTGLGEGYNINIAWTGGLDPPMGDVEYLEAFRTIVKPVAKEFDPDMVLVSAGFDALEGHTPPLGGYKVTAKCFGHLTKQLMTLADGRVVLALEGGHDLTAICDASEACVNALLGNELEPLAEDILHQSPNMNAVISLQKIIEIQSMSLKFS

Work on `O=C(NO)c1ccc(CN2CCCc3cccnc32)c(F)c1` yielded an IC50 (Histone deacetylase 2) greater than 10 µM, an IC50 (Histone deacetylase 3) of 0.568 µM and an IC50 (Histone deacetylase 4) of 0.578 µM. It also gave an IC50 (Histone deacetylase 5) of 1.85 µM, an IC50 (Histone deacetylase 8) of 0.597 µM and an IC50 (Histone deacetylase 9) of 0.701 µM. The IC50 [1] was 0.269 µM, the IC50 (Histone deacetylase 11) was 8.61 µM and the concentration at 0.5 h [2] was 13.2 ng/mL. For the same compound, the concentration at 1 h [3] was 6.48 ng/mL, the concentration at 3 h [4] was 1.07 ng/mL and the concentration at 0.5 h [5] was 6.21 ng/mL. The concentration at 1 h [6] was 4.32 ng/mL, the concentration at 3 h [7] was 0.82 ng/mL and the Kp at 0.5 h [8] was 2.1. The Kp at 1 h [9] was 1.5, the Kp at 3 h [10] was 1.3 and the Activity (BV-2) was “Non-Toxic”.
Compound `O=C(NO)c1ccc(CNC2CCCc3cccnc32)c(F)c1` (stereo unspecified) has an IC50 (Histone deacetylase 1) of 5.05 µM and an IC50 [11] of 0.063 µM.
Compound `O=C(NO)c1ccc(CN2CCCc3cccnc32)c([18F])c1` has an SUV [12] of 0.6, a Drug uptake [13] greater than 10 %ID/cc and a Drug uptake [14] greater than 10 %ID/cc. The Drug uptake [15] was greater than 10 %ID/cc, the Drug uptake [16] was “Active” and the Drug uptake [17] was “Active”. The Drug uptake [18] was “Active” and the Drug uptake [19] was “Active”.
In the case of `O=C(NO)c1ccc(CNc2cccc3ccc([18F])nc23)cc1`, the SUV [12] is reported as 0.35.
In the case of `O=C(NO)c1ccc(CNC2CCCc3cccnc32)cc1` (stereo unspecified), the IC50 (Histone deacetylase 1) is reported as 4.71 µM and the IC50 [11] is reported as 0.0861 µM.

From ChEMBL document CHEMBL5325440, “Design, synthesis, and anti-inflammatory activity characterization of novel brain-permeable HDAC6 inhibitors” (Eur J Med Chem, 2023)
